Experiment [1] deals with histone deacetylase (HDAC Enzyme). Description: Inhibition of Histone Deacetylase Enzymatic Activity (Boc-Lys(Ac)-AMC, Fluor-de-Lys developer). It counts as biochemical. As to the method:
The following protocol is used to assay the compounds of the invention.
The mixture is pre-incubated for 5 minutes at room temperature. The reaction is started by bringing the temperature to 37° C. and adding 16 μl substrate. Total reaction volume is 50 μl.
In the Tables 8, 9 and 10, A≦[…]<B≦0.1 μM; 0.1 μM<C≦1 μM; and 1 μM<D≦10 μM.

For experiment [2], the system named is HDAC in primary mouse cortical neurons. As to the kind of experiment: Whole-Cell Histone Deacetylase (HDAC) Inhibition Assay in Primary Mouse Cortical Cultures. It is filed as cell-based. As for the experimental part:
Primary neocortical cultures are established through the dissection of the neocortex from E17 embryos harvested from time-pregnant Balb/C mice. Following dissection, the neocortical tissue specimens undergo digestion by incubation at 37° C. for 10 minutes in dissection medium (1×HBSS/10 mM HEPES/1 mM Sodium Pyruvate) supplemented with (0.25%) Trypsin and (0.1%) DNase I. Digested tissue is washed and resuspended in plating medium (NeuroBasal/10% HS/0.5 mM L-Glutamine (Invitrogen Corporation)) for trituration. Additional plating medium is added, and the contents are passed over a 70 um cell-strainer. The cell-density is quantified using a hemacytometer, and dilutions are made to allow for the plating of 50000 cells/well/100 uL in 96-well PDL-coated plates. Plates are incubated for 4-5 hours in 37° C./5% CO2-incubator, after which time the entire volume is exchanged to feeding medium (NeuroBasal/2% B-27 Serum-free supplement/0.5 mM L-Glutamine/1% Penicillin-Streptomycin (Invitrogen Corporation)). The cultures undergo two 50% fresh feeding medium exchanges at 3 days in vitro (DIV3), and again at DIV7.
Compounds for testing are resuspended in dimethyl sulphoxide (DMSO), and further diluted in DMSO for a ten-point dose-response curve, with appropriate controls. Each master plate is assayed in triplicate. […] Three DIV9 culture plates are leveled to 50 uL/well, onto which each has overlaid 50 uL/well of the diluted daughter plate. The plates are returned to the 37° C./5% CO2-incubator for 16-18 hours.
The next step of the assay involves the exposure of a HDAC colorimetric substrate, comprising an acetylated lysine side chain, to the compound-treated neuronal cultures. Based on the ability of the compound to inhibit HDAC activity in the neuronal cultures, the substrate is deacetylated by HDACs, and subsequently sensitized. […] Compound-incubated culture plates are again leveled to 50 uL/well and 2 uL/well of 7.5 mM BOC-Lys (Ac)-AMC substrate is added and thoroughly mixed. Plates are returned to the 37° C./5% CO2-incubator for 1 hour.
The final addition to the culture plates entails treatment with a Fluor de LyS™-based developer (BIOMOL Research Laboratories, Inc.) to produce a fluorophore, which is analyzed using a spectrophotometer. The developer solution (1× Fluor de Lys™/1% NP-40/1 uM TSA in HDAC Buffer Solution) is prepared, and 50 uL/well is added to each of the wells of the culture plates. […] The plates are returned to the 37° C./5% CO2-incubator for 10-15 minutes, after which time, they are removed and set in the dark at room temperature for 5-10 minutes.

The test system of experiment [3] is Drosophila Huntington's Disease model flies. Description: In Vivo Drosophila Fly Assay for Treatment of Huntington's Disease (automated climbing behavior, early/late speed effect size). Also on record: species or system Drosophila melanogaster. The note with it: for Speed 1 to 7 (effect size, early speed): average speed days 1-7 vs DMSO-carrier control; for Speed 8 to 10 (effect size, late speed): average speed days 8-10 vs DMSO-carrier control. From the text:
The Drosophila Huntington's Disease assay used to screen compounds of the present invention followed that of WO 2007/002497, which is hereby incorporated by reference in its entirety.
Briefly, parental (model and driver) lines are maintained in sufficient quantities to provide virgins and males for assay crosses as well as perpetuating the lines. Disease model flies are maintained with the disease genes “silent”, functionally linked to a UAS enhancer element. The “driver” lines contain a GAL4 element under the control of a tissue-specific promoter. These are crossed together to generate the assay flies which have tissue-specific (i.e. CNS) expression of the disease gene(s).
Weekly assay crosses are set up with sufficient virgins and males to generate enough assay embryos for sorting. Approximately 50,000 males and 75,000 virgins are crossed in population cages. Embryos are collected for an eight hour window two days later. The embryos are then sorted onto 16 mm assay vials containing regular fly media and allowed to develop. Flies containing both the GAL4 driver element and the disease gene(s) are detected by the presence of GFP, a fluorescing protein. Approximately 10 assay flies eclose per vial, the optimal number for the behavioral assay. Once the flies eclose, they are transferred onto assay vials containing liquid Drosophila food. Similarly, control crosses are set up with virgins of the driver and males from a non-disease UAS line. Throughout fly production and the assay days, all flies are maintained at constant temperature and humidity, with preset light cycle, optimized for the particular lines and crosses.
Quality control (QC) for the parental lines is carried out weekly by collecting a sample of random male flies from each line. Single-fly PCR is carried out to ascertain the presence of the GAL4 or UAS element. If greater than 5% of the individuals lack the appropriate element, the assay cross is aborted. A second form of QC is also carried out to ensure that the GAL4 element is able to drive expression of a transgene. A sample of individual “driver” virgins is crossed to UAS-GFP males. Their progeny are visually checked for GFP expression in the appropriate tissues. Lack of GFP in greater than 4% of the crosses results in the assay being aborted.
Test compounds are weighed out and dissolved in DMSO at stock concentrations 100× what is desired in the assay and arrayed into 96-well master plates, including wells for DMSO-only controls and the positive control(s). A single well is reserved for a colored dye used to ensure proper orientation of compounds during drug dispensing and fly transfer. Replicate daughter plates for each day of the assay are stamped out. The plates are bar coded and stored at −20 C until used for the assay.
For a particular assay day, the plates are thawed and a robotic liquid handler is used to dilute the test compound into the liquid fly food and dispense the mixture into the assay vials. For Huntington Disease (HD) models, eight replicates per single treatment (one compound, one concentration) are dispensed. Fresh test compound treated media is made daily during an assay.
On the day the assay flies eclose (emerge from […]; assay Day 0) they are transferred to the test compound treated vials. On assay Day 1, the flies are transferred onto clean test compound treated vials one hour before assay time. They are then placed in the assay machine to acclimate to the appropriate climate conditions.
The assay machine is an environmentally-enclosed and controlled robot that can maintain user-set temperature and humidity. The machine can hold up to sixteen 96-vial racks in four quadrants, for a total of 1536 vials. There are four camera stations, which hold four vials each and a CCD camera for movie capture. […]

Where [4] appears, read: Table 10, read-out: HDAC Inhibition (IC50 μM) HDAC Enzyme.
The mark [5] stands for this setting: Table 10, whole-cell, read-out: HDAC Inhibition (IC50 μM) WC mouse cortical neurons.

These results are taken from patent publication US8399452B2, “Dibenzo[b,f][1,4]oxazepin-11-yl-N-hydroxybenzamides as HDAC inhibitors” (Methylgene Inc., priority 2006, dated 2013).

Like-named read-outs stand apart in the source and are kept apart here.

Turning to `O=C(NO)c1ccc(OCCN2C(=O)c3ccccc3Oc3ccccc32)c(F)c1`, the figures for the IC50 in experiment [1] (setting [4]) and in experiment [2] (setting [5]) were 0.05 to 0.1 µM and below 1 µM, respectively.

As for `O=C(NO)c1ccc(OCCN2C(=O)c3cc(F)ccc3Oc3ccccc32)cc1`, the IC50 is below 0.05 µM in experiment [1] (setting [4]) and below 1 µM in experiment [2] (setting [5]).

In the case of `O=C(NO)c1ccc(OCCN2C(=O)c3ccccc3Oc3cc(Cl)ccc32)cc1`, the IC50 in experiment [1] (setting [4]) was below 0.05 µM; in experiment [2] (setting [5]), 1 to 5 µM.

Regarding `O=C(NO)c1ccc(OCC(=O)N2Cc3ccccc3Oc3ccccc32)cc1`, the figures for the IC50 in experiment [1] (setting [4]) and in experiment [2] (setting [5]) were 0.1 to 1 µM and 1 to 5 µM, respectively.

With `O=C(NO)c1cnc(N2C3CNC(C3)C2c2cc(C(F)(F)F)ccn2)nc1` (stereo not drawn), the “Speed 1 to 7 (effect size, early speed)” value in experiment [3] (30 uM) is listed as 0.468; in experiment [3] (100 uM), 0.82; in experiment [3] (300 uM), 0.3. In addition, the entries for the “Speed 8 to 10 (effect size, late speed)” value in experiment [3] (30 uM), in experiment [3] (100 uM) and in experiment [3] (300 uM) were 0.087, 0.82 and 0.54, respectively.

As to `O=C(NO)c1cccc(OCCN2C(=O)c3ccccc3Oc3ccccc32)c1`, the IC50 in experiment [1] (setting [4]) was 0.1 to 1 µM; in experiment [2] (setting [5]), above 15 µM.

On to `O=C(NO)c1ccc(OCCN2C(=O)c3ccccc3Oc3ccccc32)cc1`, for which the IC50 in experiment [1] (setting [4]) is below 0.05 µM; in experiment [2] (setting [5]) it was below 1 µM.

Consider `CN1CCC2=C(C1)Oc1ccccc1N(CCOc1ccc(C(=O)NO)cc1)C2=O`, for which the values for the IC50 in experiment [1] (setting [4]) and in experiment [2] (setting [5]) were below 0.05 µM and below 1 µM, respectively.

Turning to `O=C(NO)c1ccc(OCCN2C(=O)CCOc3ccccc32)cc1`, the IC50 in experiment [1] (setting [4]) was below 0.05 µM; in experiment [2] (setting [5]), below 1 µM.

`O=C(NO)c1ccc(OCCN2CCOc3ccccc3C2=O)cc1`: the figures for the IC50 in experiment [1] (setting [4]) and in experiment [2] (setting [5]) were below 0.05 µM and 1 to 5 µM, respectively.

Turning to `O=C(NO)c1ccc(OCCN2C(=O)c3cccnc3Oc3ccccc32)cc1`, the values for the IC50 in experiment [1] (setting [4]) and in experiment [2] (setting [5]) were below 0.05 µM and below 1 µM, respectively.

Take `O=C(NO)c1ccc(OCCN2C(=O)c3ccncc3Oc3ccccc32)cc1`: the results for the IC50 in experiment [1] (setting [4]) and in experiment [2] (setting [5]) were below 0.05 µM and below 1 µM, respectively.

Consider `O=C(NO)c1ccc(C2=Nc3ccccc3Oc3ccsc32)cc1` [(Z)-4-(benzo[b]thieno[2,3-f][1,4]oxazepin-10-yl)-N-hydroxybenzamide], for which the IC50 in experiment [1] (read-out: HDAC Inhibtion (IC50 μM) HDAC Enzyme) is below 0.05 µM; in experiment [2] (whole cell, read-out: HDAC Inhibtion (IC50 μM) WC mouse cortical neurons) it was 1 to 5 µM.

For the compound `O=CN(O)CCCCCCN1C(=O)c2ccccc2Oc2ccccc21` [N-hydroxy-N-(6-(11-oxodibenzo[b,f][1,4]oxazepin-10(11H)-yl)hexyl)formamide], the IC50 in experiment [1] (setting [4]) is below 0.05 µM.

Take `O=C(NO)c1cnc(N2CCCN(C(=O)OCc3ccccc3)CC2)nc1` [benzyl 4-(5-(hydroxycarbamoyl)pyrimidin-2-yl)-1,4-diazepane-1-carboxylate]: the half-maximal inhibitory concentration (IC50) in experiment [1] (setting [4]) fell in the range of 0.05 to 0.1 µM.

“(Z)-N-(5H-dibenzo[b,f]azepin-5-yl)methyl)benzyl)-N-hydroxyformamide”: the IC50 in experiment [1] (setting [4]) lay in the range of 0.1 to 1 µM.
